Results reported in patent publication US5747239A, “Synthetic peptides specific for the detection of antibodies to HCV, diagnosis of HCV infection and preventions thereof as vaccines” (United Biomedical, Inc., priority 1994, dated 1998).

Key:
Type in all cases: binding, human
antibodies to HCV [1] = test: Peptide ELISA for relative immunoreactivity, 8 member HCV serum panel (Panel I); details: NS-3 peptides (Tables 4B-4D), relative to pep3 (279A)
antibodies to HCV [2] = test: NS-1 peptide ELISA, early and late HCV infection panels
Protocol: In addition, all sixteen NS-1 peptides were tested on panels of samples representing HCV-antibody positive donors (n=9) in an early stage of infection, namely plasmapheresis donors with the first occurrence of an ALT level >100 i.u./L, and those asymptomatic individuals (n=14) disqualified from blood donation because of a reactive result for anti-HIV or HBc, for whom the anti-HCV result probably represents a past infection.
These select panels were chosen from hundreds of HCV positive sera for their ability to recognize NS-1 antigens. For both groups, peptide designated as 232A (pep2) had the greatest immunoreactivity. Using pep2 as a standard, the relative immunoreactivity of each peptide was calculated (Table 3C).

antibodies to HCV [3] = test: NS-1 peptide ELISA, Panel II (asymptomatic individuals, mainland China and Taiwan); details: for % IP: NS-1 peptides, Panel II (CH1-CH7), relative to pep1 (231C)
Protocol: Wells of 96-well plates were coated for 1 hour at 37° C. with each of the 16 peptides (designated as peptides 241A-C, 231A-E, 232A-D, 233C, 234A-C), synthesized according to sequences derived from the NS-1 region (Table 3A), at 5 ug/mL at 100 uL per well in 10 mM NaHCO3 buffer, pH 9.5. Each peptide's immunoreactivity was measured as previously described (see Example 1), using an 8 member serum panel (Panel I).
A panel of serum samples from individuals coming from regions in which hepatitis C is endemic, namely mainland China and Taiwan, were tested for evidence of reactivity to these NS-1 protein derived peptides. Twenty-four samples were chosen from individuals who had no recognizable symptoms of non-A, non-B hepatitis and for whom the peptide based HCV EIA, Format C, as described in Example 11, was nonreactive. Seven of the 24 samples (29%) were reactive against one or more peptides from the NS-1 region, indicative of the presence of long term protective antibodies responsive to this region. This 7 member panel (designated as Panel II, CH1-CH7) was used to further characterize these NS-1 peptides for their immunoreactivity.
The peptide with the greatest reactivity against the serum Panel II again was pep1 (designated 231c in Table 3A). Using this peptide as a standard, the relative immunoreactivity for each of the other 15 peptides from the NS-1 region are calculated in Table 3A.

antibodies to HCV [4] = test: Peptide ELISA for relative immunoreactivity, 8 member HCV serum panel (Panel I)
Protocol: As an example to illustrate how relative (%) immunoreactivity for HCV synthetic peptides is measured, wells of 96-well plates are coated for 1 hour at 37° C., with each of the following peptides: IIH, V, VIIIE and pep11 at 5 ug/mL at 100 uL per well in 10 mM NaHCO3 buffer, pH 9.5. The peptide coated wells were then incubated with 250 uL of 3% by weight of gelatin in PBS in 37° C. for 1 hour to block non-specificprotein binding sites, followed by three washes with PBS containing 0.05% by volume of TWEEN 20 and then dried. The test specimens containing a panel of eight well-characterized HCV antibody positive patient sera were diluted with PBS containing 20% by volume normal goat serum, 1% by weight gelatin and 0.05% by volume TWEEN 20 at dilutions of 1:20 volume to volume, respectively. 200 uL of the diluted specimens were added to each of the wells and allowed to react for 15 minutes at 37° C.
The wells were then washed six times with 0.05% by volume TWEEN 20 in PBS in order to remove unbound antibodies. Horseradish peroxidase conjugated goat anti-human IgG was used as a second antibody tracer to bind with the HCV antibody-peptide antigen complex formed in positive wells. 100 uL of peroxidase labeled goat anti-human IgG at a dilution of 1:1800 in 1% by volume normal goat serum, 0.05% by volume TWEEN 20 in PBS was added to each well and incubated at 37° C. for another 15 minutes.
The wells were washed six times with 0.05% by volume TWEEN 20 PBS to remove unbound antibody and reacted with 100 uL of the substrate mixture containing 0.04% by weight orthophenylenediamine (OPD) and 0.12% by volume hydrogen peroxide in sodium citrate buffer, pH 5.0.
This substrate mixture was used to detect the peroxidase label by forming a colored product. Reactions were stopped by the addition of 100 uL of 1.0M H2 SO4 and the A492 mm measured. Results of relative immunoreactivity for each of the peptides obtained from this study are shown in Table A using peptide II H as the reference.

antibodies to HCV [5] = test: EIA of NS-3 peptides before and after pH adjustment
Protocol: Peptides dissolved at 1 mg/mL in H2 O, pH 4, were titrated to pH 11 by addition of diluted NaOH. After 5 min at pH 11, the pH of the peptide solution was brought down to 7.0 using diluted HCl. Immunoreactivity of the peptides thus treated was compared with reactivity prior to pH adjustment (Table 4E). Two-to three-fold increases in A492 nm were seen. Some previously non-reactive serum samples were able to react with pH adjusted peptides. For instance, serum sample 1, which is non-reactive to 261C, has an absorbance of 1401 mA when tested with the corresponding pH adjusted peptide.

[6] = Early HCV Infection panel, n = 9
[7] = Late HCV Infection panel, n = 14

In the case of “AYMSKAHGIDPNIRTGVRTITTGSPITYSTYGKFLADGGCSGGAYDIIICDECHSTDAT [262E]”, the “% Relative Immunoreactivity” value (antibodies to HCV [1]) is reported as 3.6%.

With “DRSGAPTYSWGENDTDVFVLNNTRPPLGNWFGCTWMNSTGFTKVCGAPPC [232D]” the “% Relative Immunoreactivity in comparison to Pep2 (232A)” value (from here on “% Relative Immunoreactivity … (232A)”) (antibodies to HCV [2]; [6]) was 50.0%, the “% Relative Immunoreactivity … (232A)” value (antibodies to HCV [2]; [7]) was 46.7% and the “% IP” value (antibodies to HCV [3]) was 25.9%. For the same molecule, the Absorbance (antibodies to HCV [4]; Panel I sample 4) was 785 mA and the “result with the remaining 7 panel members” value (antibodies to HCV [4]; Panel I without sample 4) was “negative”.

“EVALSTTGEIPFYGKAIPLEVIKGGRHLIFCHSKKKCDEL [261B]” was tested, and the “% Relative Immunoreactivity” value (antibodies to HCV [1]) was 3.1%.

With “FLADGGCSGGAYDIIICDECHSTDATSILGIGTVLDQAETAG [279B]” the “% Relative Immunoreactivity” value (antibodies to HCV [1]) was 3%.

“GCSGGAYDIIICDECHSTDATSILGIGTVLDQAETAG [279A]” was tested, and the “% Relative Immunoreactivity” value (antibodies to HCV [1]) was 100.0%.

“PNIRTGVRTITTGSPITYSTYGKFLADGGCSGGAYDIIICDECHSTDAT [262D]” was tested, and the “% Relative Immunoreactivity” value (antibodies to HCV [1]) was 9.3%.

With “QGWGPISYANGSGPDQRPYCWHYPPKPCGIVPAKSVCGPVYC [231C]” the “% Relative Immunoreactivity … (232A)” value (antibodies to HCV [2]; [6]) was 88.6%, the “% Relative Immunoreactivity … (232A)” value (antibodies to HCV [2]; [7]) was 62.7% and the “% IP” value (antibodies to HCV [3]) was 100.0%. The “A492 nm by EIA (mA)” value (antibodies to HCV [3]; Panel II sample CH-1) was 2237 mA, the “A492 nm by EIA (mA)” value (antibodies to HCV [3]; Panel II sample CH-2) was 2472 mA and the “A492 nm by EIA (mA)” value (antibodies to HCV [3]; Panel II sample CH-3) was 171 mA. For the same molecule, the “A492 nm by EIA (mA)” value (antibodies to HCV [3]; Panel II sample CH-4) was 218 mA, the “A492 nm by EIA (mA)” value (antibodies to HCV [3]; Panel II sample CH-5) was 311 mA and the “A492 nm by EIA (mA)” value (antibodies to HCV [3]; Panel II sample CH-6) was 247 mA. For the same molecule, the “A492 nm by EIA (mA)” value (antibodies to HCV [3]; Panel II sample CH-7) was 206 mA and the immunopotency index (antibodies to HCV [4]; Panel I, compared with peptide VIIIE) was 13.9%.

“RTITTGSPITYSTYGKFLADGGCSGGAYDIIICDECHS [275A]” was tested, and the “% Relative Immunoreactivity” value (antibodies to HCV [1]) was 18.2%.

“RTITTGSPITYSTYGKFLADGGCSGGAYDIIICDECHSTDATSILGIGTVLDQAETAG [279E]” was tested, and the “% Relative Immunoreactivity” value (antibodies to HCV [1]) was 2.2%.

In the case of “SVTVPHPNIEEVALSTTGEIPFYGKAIPLEVIKGGRHLIFCHSKKKCDEL [261C]”, the relative immunopotency (antibodies to HCV [5]; after pH adjustment, compared with the standard pep3 (279A)) is reported as 68.5%, the “A492 nm (mA) by EIA” value (antibodies to HCV [5]; serum sample 1, Ctrl (prior to pH adjustment)) is reported as 6 mA and the “A492 nm (mA) by EIA” value (antibodies to HCV [5]; serum sample 1, pH adj (pH 11 for 5 min, then 7.0)) is reported as 1401 mA. The “A492 nm (mA) by EIA” value (antibodies to HCV [5]; serum sample 2, Ctrl) was 5 mA, the “A492 nm (mA) by EIA” value (antibodies to HCV [5]; serum sample 2, pH adj) was 499 mA and the “A492 nm (mA) by EIA” value (antibodies to HCV [5]; serum sample 3, Ctrl) was 24 mA. For the same molecule, the “A492 nm (mA) by EIA” value (antibodies to HCV [5]; serum sample 3, pH adj) was 175 mA, the “A492 nm (mA) by EIA” value (antibodies to HCV [5]; serum sample 4, Ctrl) was 27 mA and the “A492 nm (mA) by EIA” value (antibodies to HCV [5]; serum sample 4, pH adj) was 351 mA. For the same molecule, the “% Relative Immunoreactivity” value (antibodies to HCV [1]) was 3.2%.

For “TTGSPITYSTYGKFLADGGCSGGAYDIIICDECHSTDAT [262B]”, the “% Relative Immunoreactivity” value (antibodies to HCV [1]) was 4.7%.

In the case of “TVLDQAETAGARLVVLATATPPGSVTVPHPNIEEVAL [274A]”, the “% Relative Immunoreactivity” value (antibodies to HCV [1]) is reported as 2.0%.

With YGKFLADGGCSGGAYDIIICDECHSTDAT [262A] the “% Relative Immunoreactivity” value (antibodies to HCV [1]) was 6.9%.

B1: HLHAPTGSGKSTKVPAAYAAQGYKVLVLNPSVAATLGFGAYMSKAHGIDPNIRTGVRTITTGSPITYSTYGKFLADGGCSGGAYDIIICDECHS (peptide)
chain: HLHAPTGSGKSTKVPAAYAAQGYKVLVLNPSVAATLGFGAYMSKAHGIDPNIRTGVRTITTGSPITYSTYGKFLADGGCSGGAYDIIICDECHS
With B1 the “% Relative Immunoreactivity” value (antibodies to HCV [1]) was 9.6%.

B2: AHGIDPNIRTGVRTITTGSPITYSTYGKFLADGGCSGGAYDIIICDECHSTDATSILGIGTVLDQAETAGARLVVLATATPPGSVTVPHPNIEEVAL (peptide)
chain: AHGIDPNIRTGVRTITTGSPITYSTYGKFLADGGCSGGAYDIIICDECHSTDATSILGIGTVLDQAETAGARLVVLATATPPGSVTVPHPNIEEVAL
In the case of B2, the “% Relative Immunoreactivity” value (antibodies to HCV [1]) is reported as 3.9%.

B3: GYKVLVLNPSVAATLGFGAYMSKAHGIDPNIRTGVRTITTGSPITYSTYGKFLADGGCSGGAYDIIICDECHSTDATSILGIGTVLDQAETAGARLVVLATATPPGSVTVPHPNIEEVAL (peptide)
chain: GYKVLVLNPSVAATLGFGAYMSKAHGIDPNIRTGVRTITTGSPITYSTYGKFLADGGCSGGAYDIIICDECHSTDATSILGIGTVLDQAETAGARLVVLATATPPGSVTVPHPNIEEVAL
B3 was tested, and the “% Relative Immunoreactivity” value (antibodies to HCV [1]) was 2.8%.

B4: TVLDQAETAGARLVVLATATPPGSVTVPHPNIEEVALSTTGEIPFYGKAIPLEVIKGGRHLIFCHSKKKCDEL (peptide)
chain: TVLDQAETAGARLVVLATATPPGSVTVPHPNIEEVALSTTGEIPFYGKAIPLEVIKGGRHLIFCHSKKKCDEL
With B4 the “% Relative Immunoreactivity” value (antibodies to HCV [1]) was 15.8%.

B5: GYKVLVLNPSVAATLGFGAYMSKAHGIDPNIRTGVRTITTGSPITYSTYGKFLADGGCSGGAYDIIICDECHSTDAT (peptide)
chain: GYKVLVLNPSVAATLGFGAYMSKAHGIDPNIRTGVRTITTGSPITYSTYGKFLADGGCSGGAYDIIICDECHSTDAT
B5 was tested, and the “% Relative Immunoreactivity” value (antibodies to HCV [1]) was 5.1%.

B6: TMRSPVFTDNSSPPVVPQSFQVAHLHAPTGSGKSTKVPAAYAAQGYKVLVLNPSVAATLGFGAYMSKAHGIDPNIRTGVRTITTGSPITYSTYGKFLADGGCSGGAYDIIICDECHS (peptide)
chain: TMRSPVFTDNSSPPVVPQSFQVAHLHAPTGSGKSTKVPAAYAAQGYKVLVLNPSVAATLGFGAYMSKAHGIDPNIRTGVRTITTGSPITYSTYGKFLADGGCSGGAYDIIICDECHS
For B6, the “% Relative Immunoreactivity” value (antibodies to HCV [1]) was 5.4%.

B7: SVAATLGFGAYMSKAHGIDPNIRTGVRTITTGSPITYSTYGKFLADGGCSGGAYDIIICDECHSTDAT (peptide)
chain: SVAATLGFGAYMSKAHGIDPNIRTGVRTITTGSPITYSTYGKFLADGGCSGGAYDIIICDECHSTDAT
In the case of B7, the “% Relative Immunoreactivity” value (antibodies to HCV [1]) is reported as 4.7%.
